Results taken from PubChem BioAssay (NCI).
Where “and” joins values, the source holds several entries; their conditions need not be identical. Equal values may be shown once.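 Growth conditions: 96-well plates. Treatment: test compound, 48 hours, 5 concentrations. Analysis: linear interpolation between bracketing concentrations; unreached endpoints set to highest concentration. Here, GI50 denotes the concentration required for 50% inhibition of growth. TGI is the concentration that stops growth completely.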

Key:
Assay in all cases: DTP human tumour cell line panel, 48 h
RPMI-8226 leukemia = test system: RPMI-8226 leukemia
SF-539 CNS = test system: SF-539 CNS
ACHN renal = test system: ACHN renal
MOLT-4 leukemia = test system: MOLT-4 leukemia
TK-10 renal = test system: TK-10 renal
A498 renal = test system: A498 renal
COLO 205 colon = test system: COLO 205 colon
KM12 colon = test system: KM12 colon
U251 CNS = test system: U251 CNS
SR leukemia = test system: SR leukemia

Structure (SMILES) | TGI (RPMI-8226 leukemia) | TGI (SF-539 CNS) | TGI (ACHN renal) | TGI (MOLT-4 leukemia) | TGI (TK-10 renal) | TGI (A498 renal) | TGI (COLO 205 colon) | TGI (KM12 colon) | TGI (U251 CNS) | TGI (SR leukemia) | GI50 (RPMI-8226 leukemia) | GI50 (SF-539 CNS) | GI50 (ACHN renal) | GI50 (SR leukemia) | GI50 (MOLT-4 leukemia) | GI50 (TK-10 renal) | GI50 (COLO 205 colon) | GI50 (KM12 colon) | GI50 (U251 CNS) | GI50 (A498 renal)
C1CC2=C(C1)C1=S(S2)SC2=C1CCC2 | > 100 µM | > 100 µM | > 100 µM | > 100 µM | > 100 µM | 87.4 µM | > 100 µM | > 100 µM | > 100 µM | – | – | – | – | – | – | – | – | – | – | –
O=c1c2cccnc2ncn1CCCN1CCCC1 | – | > 100 µM | > 100 µM | > 100 µM | > 100 µM | – | > 100 µM | > 100 µM | > 100 µM | > 100 µM | – | – | – | – | – | – | – | – | – | –
COc1cc(-c2cc3ncccc3c3[nH]c(=O)c4cccnc4c23)cc(OC)c1OC | 47.5 µM | 5.84 µM | > 100 µM | 28.8 µM | > 100 µM | – | > 100 µM | > 100 µM | > 100 µM | 71.9 µM | 1.3 µM | 0.488 µM | 0.885 µM | 0.359 µM | 0.782 µM | 17.2 µM | 0.538 µM | 0.651 µM | 0.603 µM | –
Clc1ccc(OCc2nnc3n2N=C(c2ccccc2)CS3)c(Cl)c1 | – | 91.1 µM | > 100 µM | > 100 µM | > 100 µM | 76.8 µM | – | > 100 µM | > 100 µM | > 100 µM | – | – | – | – | – | – | – | – | – | –
COc1cc2nc(-c3cccc4cccnc34)nc(NC3CCN(Cc4ccccc4)CC3)c2cc1OC | 4.54 µM | 2.92 µM | 2.08 µM | 1.81 µM | 2.98 µM | 3.39 µM | – | – | 2.55 µM | – | 1.6 µM | 1.4 µM | 0.773 µM | – | 0.325 µM | 1.52 µM | – | – | 1.05 µM | 1.83 µM
CC12OC(C(=O)C13CCC3)C1C(=O)c3ccc4c(ccc5ccccc54)c3C(=O)C12 (configuration not stated) | – | 66.8 µM | 21.4 µM | 53.6 µM | 15 µM | 29.6 µM | 33.1 µM | – | 31.9 µM | – | – | 11.1 µM | 6.78 µM | – | 3.67 µM | 4.29 µM | 11.2 µM | – | 11.5 µM | 8.74 µM
COC(=O)CC(=O)NCC1=CCC(=O)CC1 | > 100 µM | > 100 µM | – | > 100 µM | > 100 µM | > 100 µM | > 100 µM | > 100 µM | > 100 µM | – | – | – | – | – | – | – | – | – | – | –
COC(=O)CC(C(C(C)=O)C(=O)OCc1ccccc1)N1C(=O)OC(c2ccccc2)C1c1ccccc1 (configuration not stated) | > 100 µM | > 100 µM | > 100 µM | > 100 µM | > 100 µM | – | > 100 µM | > 100 µM | > 100 µM | > 100 µM | – | 24.1 µM and > 100 µM | – | – | – | – | – | – | – | –
CCC(C)(O)c1cn(-c2ccc(S(=O)(=O)O)cc2)nn1 (configuration not stated) | > 100 µM | > 100 µM | > 100 µM | > 100 µM | > 100 µM | > 100 µM | > 100 µM | > 100 µM | > 100 µM | – | – | – | – | – | – | – | – | – | – | –
CC(=O)OC1C(O[C@H]2CC[C@]34O[C@]35CC[C@]3(C)C(C6(C)CC[C@@H](C(C)(C)O)O6)[C@@H](O)CC3(C)[C@@H]5CC(OC3OC(CO)C(O)C(O)C3O)C4C2(C)C)OCC(O)C1O (some centres not stated) | > 71.3 µM | > 56.6 µM | > 100 µM | > 100 µM | > 100 µM | > 100 µM | > 73.8 µM | > 100 µM | > 100 µM | – | – | – | – | – | – | – | – | – | – | –
